Measured values as given in patent US7423038B2, “Compounds and compositions as protein kinase inhibitors” (IRM LLC (a Delaware Limited Liability Corporation), priority 2004, dated 2008).

What was measured:
TrkB = target: T1, TrkB (Homo sapiens, UniProt Q16620); experiment: Upstate KinaseProfiler radio-enzymatic filter binding assay, TrkB; type: biochemical; settings: at a concentration of 10 μM; read-out: percentage inhibition of TrkB
T1 construct: purchased Upstate (KinaseProfiler panel)
Procedure: (§1) Compounds of the invention are assessed for their ability to inhibit individual members of the kinase panel. The compounds are tested in duplicates at a final concentration of 10 μM following this generic protocol, Note that the kinase buffer composition and the substrates vary for the different kinases included in the “Upstate KinaseProfiler™” panel. Kinase buffer (2.5 μL, 10x—containing MnCl2 when required), active kinase (0.001-0.01 Units; 2.5 μL), specific or Poly(Glu-4-Tyr) peptide (5-500 μM or 0.01 mg/ml) in kinase buffer and kinase buffer ([…]; 5 μL) are mixed in an eppendorf on ice. A Mg/ATP mix (10 μL; 67.5 (or 33.75) mM MgCl2, 450 (or 225) μM ATP and 1 μCi/μl [γ-^32P]-ATP (3000 Ci/mmol)) is added and the reaction is incubated at about 30° C. for about 10 minutes. The reaction mixture is spotted (20 μL) onto a 2 cm×2 cm P81 (phosphocellulose, for positively charged peptide substrates) or Whatman No, 1 (for Poly (Glu-4-Tyr) peptide substrate) paper square. The assay squares are washed 4 times, for 5 minutes each, with 0.75% phosphoric acid and washed once with acetone for 5 minutes. The assay squares are transferred to a scintillation vial, 5 ml scintillation cocktail are added and ^32P incorporation (cpm) to the peptide substrate is quantified with a Beckman scintillation counter. Percentage inhibition is calculated for each reaction.

PDGFRα = target: T2, PDGFRα (Homo sapiens, UniProt P16234); experiment: Upstate KinaseProfiler radio-enzymatic filter binding assay, PDGFRα; type: biochemical; settings: at a concentration of 10 μM; read-out: percentage inhibition of PDGFRα
T2 construct: purchased Upstate (KinaseProfiler panel)
T2 sequence (P16234 24-1089): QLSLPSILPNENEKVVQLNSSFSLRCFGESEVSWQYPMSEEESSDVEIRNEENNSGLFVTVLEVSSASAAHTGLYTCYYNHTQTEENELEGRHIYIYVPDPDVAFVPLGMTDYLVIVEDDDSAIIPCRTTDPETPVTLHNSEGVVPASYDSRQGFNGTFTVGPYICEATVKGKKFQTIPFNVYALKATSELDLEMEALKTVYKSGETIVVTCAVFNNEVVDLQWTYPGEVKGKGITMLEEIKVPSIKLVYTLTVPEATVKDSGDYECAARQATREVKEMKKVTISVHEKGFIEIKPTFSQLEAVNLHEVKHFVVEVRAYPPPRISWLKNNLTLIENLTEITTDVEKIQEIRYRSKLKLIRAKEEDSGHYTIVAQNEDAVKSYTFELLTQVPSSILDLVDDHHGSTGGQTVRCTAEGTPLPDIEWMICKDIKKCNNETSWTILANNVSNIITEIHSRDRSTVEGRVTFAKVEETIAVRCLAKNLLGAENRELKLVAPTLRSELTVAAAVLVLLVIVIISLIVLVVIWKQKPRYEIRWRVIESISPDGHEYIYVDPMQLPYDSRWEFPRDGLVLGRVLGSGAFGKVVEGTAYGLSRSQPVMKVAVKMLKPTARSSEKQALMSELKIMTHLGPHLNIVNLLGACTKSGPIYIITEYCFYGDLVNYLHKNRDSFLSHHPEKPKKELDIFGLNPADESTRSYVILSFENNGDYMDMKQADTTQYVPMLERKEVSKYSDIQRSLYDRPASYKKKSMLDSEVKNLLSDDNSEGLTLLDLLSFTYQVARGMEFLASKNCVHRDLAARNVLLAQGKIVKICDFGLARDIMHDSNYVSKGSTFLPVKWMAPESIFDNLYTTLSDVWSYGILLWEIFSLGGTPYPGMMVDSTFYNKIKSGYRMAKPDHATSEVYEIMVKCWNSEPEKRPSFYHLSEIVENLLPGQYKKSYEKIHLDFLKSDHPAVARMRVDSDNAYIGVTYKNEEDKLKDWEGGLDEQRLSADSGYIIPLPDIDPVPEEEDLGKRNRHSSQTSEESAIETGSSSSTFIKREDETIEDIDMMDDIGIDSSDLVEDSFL
Procedure: as §1

CSK = target: T3, CSK (Homo sapiens, UniProt P41240); experiment: Upstate KinaseProfiler radio-enzymatic filter binding assay, CSK; type: biochemical; settings: at a concentration of 10 μM; read-out: percentage inhibition of CSK
T3 construct: purchased Upstate (KinaseProfiler panel)
T3 sequence (P41240 whole entry): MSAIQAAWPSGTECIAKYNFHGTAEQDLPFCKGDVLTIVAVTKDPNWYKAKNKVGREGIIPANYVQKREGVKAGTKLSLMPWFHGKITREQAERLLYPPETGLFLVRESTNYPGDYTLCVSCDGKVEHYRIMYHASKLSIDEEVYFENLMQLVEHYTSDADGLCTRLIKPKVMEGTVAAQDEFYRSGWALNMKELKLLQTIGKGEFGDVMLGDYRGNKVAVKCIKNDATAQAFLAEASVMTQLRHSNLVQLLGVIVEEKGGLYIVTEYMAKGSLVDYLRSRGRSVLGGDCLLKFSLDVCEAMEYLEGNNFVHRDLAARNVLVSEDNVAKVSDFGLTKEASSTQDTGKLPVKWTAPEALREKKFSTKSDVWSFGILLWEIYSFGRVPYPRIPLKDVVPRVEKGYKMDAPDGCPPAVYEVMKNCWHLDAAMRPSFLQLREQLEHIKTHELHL
Procedure: as §1

MKK6 = target: T4, MKK6 (Homo sapiens, UniProt P52564); experiment: Upstate KinaseProfiler radio-enzymatic filter binding assay, MKK6; type: biochemical; settings: at a concentration of 10 μM; read-out: percentage inhibition of MKK6
T4 construct: purchased Upstate (KinaseProfiler panel)
Description: (§2) “Kinase Panel” is a list of kinases comprising Abl(human), Abl(T315I), JAK2, JAK3, ALK, JNK1α1, ALK4, KDR, Aurora-A, Lck, Blk, MAFK1, Bmx, MAPKAP-K2, BRK, MEK1, CaMKII(rat), Met, CDK1/cyclinB, p70S6K, CHK2, PAK2, CK1, PDGFRα, CK2, PDK1, c-kit, Pim-2, c-RAF, PKA(h), CSK, PKBα, cSrc, PKCα, DYRK2, Plk3, EGFR, ROCK-I, Fes, Ron, FGFR3, Ros, Flt3, SAPK2α, Fms, SGK, Fyn, SIK, GSK3β, Syk, IGF-IR, Tie-2, IKKβ, TrKB, IR, WNK3, IRAK4, ZAP-70, ITK, AMPK(rat), LIMK1, Rsk2, Ax1, LKB1, SAFK2β, BrSK2, Lyn (h), SAPK3, BTK, MAPKAP-K3, SAPK4, CaMKIV, MARK1, Snk, CDK2/cyclinA, MINK, SRPK1, CDK3/cyclinE, MKK4(m), TAK1, CDK5/p25, MKK6(h), TBK1, CDK6/cyclinD3, MLCK, TrkA, CDK7/cyclinH/MAT1, MRCKβ, TSSK1, CHK1, MSK1, Yes, CK1d, MST2, ZIPK, c-Kit (D816V), MuSK, DAPK2, NEK2, DDR2, NEK6, DMPK, PAK4, DRAK1, PAR-1Bα, EphA1, PDGFRβ, EphA2, Pim-1, EphA5, PKBβ, EphB2, PKCβI, EphB4, PKCδ, FGFR1, PKCη, FGFR2, PKCθ, FGFR4, PKD2, Fgr, PKG1β, Flt1, PRK2, Hck, PYK2, HIPK2, Ret, IKKα, RIPK2, IRR, ROCK-II(human), JNK2α2, Rse, JNK3, Rsk1(h), PI3 Kγ, PI3 Kδ and PI3-Kβ. […]
(§3) Compounds of the invention are assessed for their ability to inhibit individual members of the kinase panel. […] The assay squares are transferred to a scintillation vial, 5 ml scintillation cocktail are added and ^32P incorporation (cpm) to the peptide substrate is quantified with a Beckman scintillation counter. […]

E255V Bcr-abl = target: T5, E255V Bcr-abl (Homo sapiens, UniProt P00519, E255V); experiment: Antiproliferative effect on Ba/F3 cells expressing E255V Bcr-abl; type: cell-based; settings: E255V mutant
T5 construct: BCR (fusion partner); expressed in transfected cells; host or cells: Ba/F3 (murine pro-B cells); the other entry of the earlier key: BCR (P11274, Breakpoint cluster region protein)
Procedure: (§4) 32D-p210 cells are plated into 96 well TC plates at a density of 15,000 cells per well. 50 μL of two fold serial dilutions of the test compound (Cmax is 40 μM) are added to each well (STI571 is included as a positive control). After incubating the cells for 48 hours at 37° C., 5% CO2, 15 μl, of MTT (Promega) is added to each well and the cells are incubated for an additional 5 hours. The optical density at 570 nm is quantified spectrophotometrically and IC50 values, the concentration of compound required for 50% inhibition, determined from a dose response curve.
(§5) Compounds of the invention are tested for their antiproliferative effect on Ba/F3 cells expressing either wild type or the mutant forms of BCR-Abl (G250E, E255V, T315I, F317L, M351T) that confers resistance or diminished sensitivity to STI571. The antiproliferative effect of these compounds on the mutant-BCR-Abl expressing cells and on the non transformed cells were tested at 10, 3.3, 1.1 and 0.37 μM as described above (in media lacking IL3). The IC50 values of the compounds lacking toxicity on the untransformed cells were determined from the dose response curves obtained as describe above.

p70S6K = target: T6, p70S6K (Homo sapiens, UniProt P23443); experiment: Upstate KinaseProfiler radio-enzymatic filter binding assay, p70S6K; type: biochemical; settings: at a concentration of 10 μM; read-out: percentage inhibition of p70S6K
T6 construct: purchased Upstate (KinaseProfiler panel)
T6 sequence (P23443 whole entry): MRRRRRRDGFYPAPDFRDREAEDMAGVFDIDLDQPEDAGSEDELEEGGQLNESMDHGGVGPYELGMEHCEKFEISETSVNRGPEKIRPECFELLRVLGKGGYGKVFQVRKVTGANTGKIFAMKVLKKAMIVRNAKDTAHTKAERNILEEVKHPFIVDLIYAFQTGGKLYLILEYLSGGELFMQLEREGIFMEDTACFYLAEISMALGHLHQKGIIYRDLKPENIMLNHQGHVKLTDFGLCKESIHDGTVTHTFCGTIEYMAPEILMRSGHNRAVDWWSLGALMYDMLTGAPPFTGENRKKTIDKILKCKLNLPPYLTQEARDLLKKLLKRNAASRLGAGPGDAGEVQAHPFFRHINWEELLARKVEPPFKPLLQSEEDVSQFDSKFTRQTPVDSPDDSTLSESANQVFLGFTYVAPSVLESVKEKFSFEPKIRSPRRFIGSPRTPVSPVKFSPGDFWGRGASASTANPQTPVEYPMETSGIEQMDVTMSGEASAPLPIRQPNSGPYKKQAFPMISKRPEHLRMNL
Procedure: as §1

IR = target: T7, IR (Homo sapiens, UniProt P06213); experiment: Upstate KinaseProfiler radio-enzymatic filter binding assay, IR; type: biochemical; settings: at a concentration of 10 μM; read-out: percentage inhibition of IR
T7 construct: purchased Upstate (KinaseProfiler panel)
Procedure: as §1

Flt3 = target: T8, Flt3 (Homo sapiens, UniProt P36888); experiment: Upstate KinaseProfiler radio-enzymatic filter binding assay, Flt3; type: biochemical; settings: at a concentration of 10 μM; read-out: percentage inhibition of Flt3
T8 construct: purchased Upstate (KinaseProfiler panel)
Procedure: as §1

GSK3β = target: T9, GSK3β (Homo sapiens, UniProt P49841); experiment: Upstate KinaseProfiler radio-enzymatic filter binding assay, GSK3β; type: biochemical; settings: at a concentration of 10 μM; read-out: percentage inhibition of GSK3β
T9 construct: purchased Upstate (KinaseProfiler panel)
Procedure: as §1

Lck = target: T10, Lck (Homo sapiens, UniProt P06239); experiment: Upstate KinaseProfiler radio-enzymatic filter binding assay, Lck; type: biochemical; settings: at a concentration of 10 μM; read-out: percentage inhibition of Lck
T10 construct: purchased Upstate (KinaseProfiler panel)
T10 sequence (P06239 whole entry): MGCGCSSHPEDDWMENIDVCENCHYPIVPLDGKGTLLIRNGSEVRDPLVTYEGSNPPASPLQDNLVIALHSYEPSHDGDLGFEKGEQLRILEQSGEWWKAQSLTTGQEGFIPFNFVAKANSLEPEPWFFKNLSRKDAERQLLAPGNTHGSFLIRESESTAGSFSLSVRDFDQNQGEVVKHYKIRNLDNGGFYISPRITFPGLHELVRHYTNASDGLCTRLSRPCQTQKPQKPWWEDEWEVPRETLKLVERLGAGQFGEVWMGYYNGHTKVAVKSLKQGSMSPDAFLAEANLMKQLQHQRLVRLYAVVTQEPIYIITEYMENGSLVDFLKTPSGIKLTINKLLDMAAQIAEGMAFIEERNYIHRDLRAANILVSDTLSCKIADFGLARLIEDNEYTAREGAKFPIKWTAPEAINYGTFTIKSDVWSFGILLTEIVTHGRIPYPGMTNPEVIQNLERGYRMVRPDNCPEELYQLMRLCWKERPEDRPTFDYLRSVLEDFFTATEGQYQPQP
Procedure: as §1

JNK2α2 = target: T11, JNK2α2 (Homo sapiens, UniProt P45984); experiment: Upstate KinaseProfiler radio-enzymatic filter binding assay, JNK2α2; type: biochemical; settings: at a concentration of 10 μM; read-out: percentage inhibition of JNK2α2
T11 construct: purchased Upstate (KinaseProfiler panel)
T11 sequence (P45984 whole entry): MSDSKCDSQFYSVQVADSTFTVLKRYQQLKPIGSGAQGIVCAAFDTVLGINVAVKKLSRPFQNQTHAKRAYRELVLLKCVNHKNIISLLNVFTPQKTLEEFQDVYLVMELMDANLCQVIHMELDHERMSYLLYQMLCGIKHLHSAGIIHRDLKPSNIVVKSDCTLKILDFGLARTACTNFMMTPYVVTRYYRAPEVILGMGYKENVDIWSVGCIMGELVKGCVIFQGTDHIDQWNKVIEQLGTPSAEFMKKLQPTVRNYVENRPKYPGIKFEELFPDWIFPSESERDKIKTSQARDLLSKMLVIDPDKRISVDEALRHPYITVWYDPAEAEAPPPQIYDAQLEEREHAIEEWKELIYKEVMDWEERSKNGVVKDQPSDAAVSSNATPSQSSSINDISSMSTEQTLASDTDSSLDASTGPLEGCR
Procedure: as §1

SAPK2β = target: T12, SAPK2β (Homo sapiens, UniProt Q15759); experiment: Upstate KinaseProfiler radio-enzymatic filter binding assay, SAPK2β; type: biochemical; settings: at a concentration of 10 μM; read-out: percentage inhibition of SAPK2β
T12 construct: purchased Upstate (KinaseProfiler panel)
T12 sequence (Q15759 whole entry): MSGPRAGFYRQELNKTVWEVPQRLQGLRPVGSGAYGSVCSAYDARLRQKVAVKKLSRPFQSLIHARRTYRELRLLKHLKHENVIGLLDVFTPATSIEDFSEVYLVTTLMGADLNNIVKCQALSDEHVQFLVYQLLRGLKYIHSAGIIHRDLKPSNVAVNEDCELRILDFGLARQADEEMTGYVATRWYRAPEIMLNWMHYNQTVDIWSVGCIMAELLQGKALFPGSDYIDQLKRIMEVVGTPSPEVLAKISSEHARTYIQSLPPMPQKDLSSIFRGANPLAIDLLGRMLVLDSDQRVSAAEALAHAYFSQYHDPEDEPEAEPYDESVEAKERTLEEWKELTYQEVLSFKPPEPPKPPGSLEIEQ
Procedure: as §1

T315I Bcr-abl = target: T13, T315I Bcr-abl (Homo sapiens, UniProt P00519, T315I); experiment: Antiproliferative effect on Ba/F3 cells expressing T315I Bcr-abl; type: cell-based; settings: T315I mutant
T13 construct: BCR (fusion partner); expressed in transfected cells; host or cells: Ba/F3 (murine pro-B cells); the other entry of the earlier key: BCR (P11274, Breakpoint cluster region protein)
Procedure: as §4, §5

Syk = target: T14, Syk (Homo sapiens, UniProt P43405); experiment: Upstate KinaseProfiler radio-enzymatic filter binding assay, Syk; type: biochemical; settings: at a concentration of 10 μM; read-out: percentage inhibition of Syk
T14 construct: purchased Upstate (KinaseProfiler panel)
Procedure: as §1

M351T Bcr-abl = target: T15, M351T Bcr-abl (Homo sapiens, UniProt P00519, M351T); experiment: Antiproliferative effect on Ba/F3 cells expressing M351T Bcr-abl; type: cell-based; settings: M351T mutant
T15 construct: BCR (fusion partner); expressed in transfected cells; host or cells: Ba/F3 (murine pro-B cells); the other entry of the earlier key: BCR (P11274, Breakpoint cluster region protein)
Procedure: as §4, §5

Fes = target: T16, Fes (Homo sapiens, UniProt P07332); experiment: Upstate KinaseProfiler radio-enzymatic filter binding assay, Fes; type: biochemical; settings: at a concentration of 10 μM; read-out: percentage inhibition of Fes
T16 construct: purchased Upstate (KinaseProfiler panel)
Procedure: as §1

wild type Bcr-abl = target: T17, wild type Bcr-abl (Homo sapiens, UniProt P00519); experiment: Antiproliferative effect on Ba/F3 cells expressing wild type Bcr-abl; type: cell-based
T17 construct: BCR (fusion partner); expressed in transfected cells; host or cells: Ba/F3 (murine pro-B cells); the other entry of the earlier key: BCR (P11274, Breakpoint cluster region protein)
Procedure: as §4, §5

MKK4 = target: T18, MKK4 (Mus musculus, UniProt P47809); experiment: Upstate KinaseProfiler radio-enzymatic filter binding assay, MKK4; type: biochemical; settings: at a concentration of 10 μM; read-out: percentage inhibition of MKK4
T18 construct: purchased Upstate (KinaseProfiler panel)
T18 sequence (P47809 whole entry): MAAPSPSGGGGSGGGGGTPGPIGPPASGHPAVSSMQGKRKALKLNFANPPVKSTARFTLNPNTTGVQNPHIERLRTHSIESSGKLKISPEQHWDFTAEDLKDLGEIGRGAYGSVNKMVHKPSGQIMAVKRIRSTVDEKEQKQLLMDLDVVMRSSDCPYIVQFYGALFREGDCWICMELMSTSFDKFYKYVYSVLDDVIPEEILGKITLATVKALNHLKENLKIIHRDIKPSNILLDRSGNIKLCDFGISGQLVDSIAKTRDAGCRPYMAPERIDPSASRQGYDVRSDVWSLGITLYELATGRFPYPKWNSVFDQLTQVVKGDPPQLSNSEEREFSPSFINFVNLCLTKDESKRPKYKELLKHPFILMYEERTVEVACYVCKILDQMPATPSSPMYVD
Description: as §2, §3

c-RAF = target: T19, c-RAF (Homo sapiens, UniProt P04049); experiment: Upstate KinaseProfiler radio-enzymatic filter binding assay, c-RAF; type: biochemical; settings: at a concentration of 10 μM; read-out: percentage inhibition of c-RAF
T19 construct: purchased Upstate (KinaseProfiler panel)
Procedure: as §1

F317L Bcr-abl = target: T20, F317L Bcr-abl (Homo sapiens, UniProt P00519, F317L); experiment: Antiproliferative effect on Ba/F3 cells expressing F317L Bcr-abl; type: cell-based; settings: F317L mutant
T20 construct: BCR (fusion partner); expressed in transfected cells; host or cells: Ba/F3 (murine pro-B cells); the other entry of the earlier key: BCR (P11274, Breakpoint cluster region protein)
Procedure: as §4, §5

FGFR3 = target: T21, FGFR3 (Homo sapiens, UniProt P22607); experiment: Upstate KinaseProfiler radio-enzymatic filter binding assay, FGFR3; type: biochemical; settings: at a concentration of 10 μM; read-out: percentage inhibition of FGFR3
T21 construct: purchased Upstate (KinaseProfiler panel)
Procedure: as §1

Bmx = target: T22, Bmx (Homo sapiens, UniProt P51813); experiment: Upstate KinaseProfiler radio-enzymatic filter binding assay, Bmx; type: biochemical; settings: at a concentration of 10 μM; read-out: percentage inhibition of Bmx
T22 construct: purchased Upstate (KinaseProfiler panel)
Procedure: as §1

Rsk1 = target: T23, Rsk1 (Homo sapiens, UniProt Q15418); experiment: Upstate KinaseProfiler radio-enzymatic filter binding assay, Rsk1; type: biochemical; settings: at a concentration of 10 μM; read-out: percentage inhibition of Rsk1
T23 construct: purchased Upstate (KinaseProfiler panel)
T23 sequence (Q15418 whole entry): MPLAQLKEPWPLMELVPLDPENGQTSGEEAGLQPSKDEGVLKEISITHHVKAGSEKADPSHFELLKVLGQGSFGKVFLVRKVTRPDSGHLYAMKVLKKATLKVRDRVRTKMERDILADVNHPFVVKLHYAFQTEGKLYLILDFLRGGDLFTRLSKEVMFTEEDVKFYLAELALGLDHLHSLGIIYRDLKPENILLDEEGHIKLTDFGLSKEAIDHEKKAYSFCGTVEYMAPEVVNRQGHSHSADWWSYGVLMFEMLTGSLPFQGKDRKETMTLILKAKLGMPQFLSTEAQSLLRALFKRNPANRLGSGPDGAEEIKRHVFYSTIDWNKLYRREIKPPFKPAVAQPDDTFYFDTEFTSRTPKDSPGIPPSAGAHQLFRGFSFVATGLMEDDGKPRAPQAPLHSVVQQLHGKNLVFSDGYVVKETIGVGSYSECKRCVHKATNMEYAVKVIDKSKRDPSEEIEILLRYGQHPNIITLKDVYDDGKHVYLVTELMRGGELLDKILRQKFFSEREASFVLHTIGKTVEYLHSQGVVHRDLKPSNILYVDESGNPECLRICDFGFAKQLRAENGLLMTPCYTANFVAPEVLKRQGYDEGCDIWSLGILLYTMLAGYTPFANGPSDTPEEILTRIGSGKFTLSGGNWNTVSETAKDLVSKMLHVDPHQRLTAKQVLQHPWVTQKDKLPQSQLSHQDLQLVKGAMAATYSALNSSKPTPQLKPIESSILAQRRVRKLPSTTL
Description: as §2, §3

G250E Bcr-abl = target: T24, G250E Bcr-abl (Homo sapiens, UniProt P00519, G250E); experiment: Antiproliferative effect on Ba/F3 cells expressing G250E Bcr-abl; type: cell-based; settings: G250E mutant
T24 construct: BCR (fusion partner); expressed in transfected cells; host or cells: Ba/F3 (murine pro-B cells); the other entry of the earlier key: BCR (P11274, Breakpoint cluster region protein)
Procedure: as §4, §5

SAPK2α = target: T25, SAPK2α (Homo sapiens, UniProt Q16539); experiment: Upstate KinaseProfiler radio-enzymatic filter binding assay, SAPK2α; type: biochemical; settings: at a concentration of 10 μM; read-out: percentage inhibition of SAPK2α
T25 construct: purchased Upstate (KinaseProfiler panel)
Procedure: as §1

JNK1α1 = target: T26, JNK1α1 (Homo sapiens, UniProt P45983); experiment: Upstate KinaseProfiler radio-enzymatic filter binding assay, JNK1α1; type: biochemical; settings: at a concentration of 10 μM; read-out: percentage inhibition of JNK1α1
T26 construct: purchased Upstate (KinaseProfiler panel)
T26 sequence (P45983 1-384 isoform P45983-2): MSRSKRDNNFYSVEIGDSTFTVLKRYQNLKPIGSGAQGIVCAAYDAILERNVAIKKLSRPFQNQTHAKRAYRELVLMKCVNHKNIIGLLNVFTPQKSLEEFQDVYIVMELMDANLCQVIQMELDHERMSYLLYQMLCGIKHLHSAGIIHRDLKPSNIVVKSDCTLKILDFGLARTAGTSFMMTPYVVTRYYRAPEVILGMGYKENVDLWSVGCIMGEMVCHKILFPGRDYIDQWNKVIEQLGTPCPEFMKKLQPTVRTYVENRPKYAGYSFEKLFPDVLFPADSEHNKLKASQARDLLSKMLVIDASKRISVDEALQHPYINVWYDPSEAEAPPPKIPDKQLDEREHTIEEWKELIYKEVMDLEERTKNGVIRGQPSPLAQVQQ
Procedure: as §1

Cc1ccc(Nc2ncc3nc(-c4cc(NC(=O)c5cccc(C(F)(F)F)c5)ccc4C)c(=O)n(C)c3n2)cn1 [Example 2, N-[4-methyl-3-(8-methyl-2-(6-methyl-pyridin-3-ylamino)7-oxo-7,8-dihydropteridin-6-yl)-phenyl]-3-trifluoromethyl-benzamide]
inhibition at 10 µM (TrkB): 96% | inhibition at 10 µM (PDGFRα): 76% | inhibition at 10 µM (CSK): 98% | inhibition at 10 µM (MKK6): 97% | IC50 (E255V Bcr-abl): 13 nM | inhibition at 10 µM (p70S6K): 98% | inhibition at 10 µM (IR): 60% | inhibition at 10 µM (Flt3): 64% | inhibition at 10 µM (GSK3β): 53% | inhibition at 10 µM (Lck): 98% | inhibition at 10 µM (JNK2α2): 99% | inhibition at 10 µM (SAPK2β): 99% | IC50 (T315I Bcr-abl): 55 nM | inhibition at 10 µM (Syk): 76% | IC50 (M351T Bcr-abl): < 0.5 nM | inhibition at 10 µM (Fes): 100% | IC50 (wild type Bcr-abl): < 0.5 nM | inhibition at 10 µM (MKK4): 92% | inhibition at 10 µM (c-RAF): 100% | IC50 (F317L Bcr-abl): < 0.5 nM | inhibition at 10 µM (FGFR3): 98% | inhibition at 10 µM (Bmx): 100% | inhibition at 10 µM (Rsk1): 90% | IC50 (G250E Bcr-abl): 23 nM | inhibition at 10 µM (SAPK2α): 95% | inhibition at 10 µM (JNK1α1): 98%
